We go through 17 compounds from patent US9765018B2, “IDO inhibitors” (BRISTOL-MYERS SQUIBB COMPANY, priority 2013, dated 2017).

For orientation: IC50 means the point on the concentration scale where inhibition reaches its midpoint.

Molecules are shown by their SMILES.

The target of one assay is Human IDO1 (Homo sapiens (Human), UniProt P14902). The assay can be described thus: IDO Kynurenine Assay with Human IDO1/HEK293 Cells. In kind it is cell-based. The settings on record: HEK293 cells with human IDO1; read-out: HEK human IDO-1 (IC50). The essentials: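 HEK293 cells expressing human IDO1 (10,000/well, phenol-red-free RPMI, 10% FBS) exposed to compound for 20 h at 37 °C. Reaction stopped with 0.2% TCA and heated 30 min at 50 °C; kynurenine in supernatant detected with Ehrlich reagent by absorbance at 490 nm.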
Sequence of Human IDO1 (P14902 whole entry): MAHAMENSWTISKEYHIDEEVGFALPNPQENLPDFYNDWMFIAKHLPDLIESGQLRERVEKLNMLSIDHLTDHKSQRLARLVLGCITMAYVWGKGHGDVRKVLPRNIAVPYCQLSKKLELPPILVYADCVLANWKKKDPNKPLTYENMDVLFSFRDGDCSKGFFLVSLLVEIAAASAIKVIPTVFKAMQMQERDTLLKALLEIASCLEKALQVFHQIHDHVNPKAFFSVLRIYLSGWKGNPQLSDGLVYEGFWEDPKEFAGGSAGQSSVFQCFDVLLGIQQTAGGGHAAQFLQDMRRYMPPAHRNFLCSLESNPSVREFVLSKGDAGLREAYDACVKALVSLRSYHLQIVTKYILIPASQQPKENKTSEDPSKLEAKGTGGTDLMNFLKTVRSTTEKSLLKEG

In assay [1] the target is T1, IDO (Homo sapiens (Human), UniProt P14902). Briefly: Kynurenine assay in IFN-γ-stimulated Hela cells. In kind it is cell-based. Conditions: 20 h, read-out: Hela Kyurenine (IC50). In a few lines: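 Kynurenine in supernatant is read at 490 nm after Ehrlich reagent (10 min RT), following TCA stop and 30 min at 50° C hydrolysis. Before that, Hela cells in phenol red-free RPMI/10% FBS were co-treated 20 h at 37° C with 100 ng/mL IFN-γ and compound (30 μM top, 3-fold series to 1.5 nM).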
T1 sequence (P14902 whole entry): as above

Assay [2] addresses T1, IDO. The assay can be described thus: LLE_IDO_ABS_DR (IDO assay, method not described).

As for `COc1ccc(-c2ccc(Oc3cccc(C)c3C)c(NC(=O)Nc3cccc(C)c3)c2)cc1C(=O)O` [Example 122, 4′-(2,3-dimethylphenoxy)-4-methoxy-3′-(3-m-tolylureido)biphenyl-3-carboxylic acid], the IC50 on Human IDO1 was 660 nM; on IDO [1], 80 nM; against IDO [2], 250 nM.
Regarding `COc1ccc(-c2ccc(Oc3cccc(C)c3C)c(NC(=O)Nc3ccc(C)cc3)c2)cc1C(=O)O` [Example 123, 4′-(2,3-dimethylphenoxy)-4-methoxy-3′-(3-p-tolylureido)biphenyl-3-carboxylic acid], the IC50 at Human IDO1 turned out to be 680 nM; on IDO [1] it was 160 nM; at IDO [2] it was 730 nM.
For `COc1ccc(-c2ccc(Oc3ccccc3C3CC3)c(NC(=O)Nc3ccc(C)cc3)c2)cc1C(=O)O` [Example 127, 4′-(2-cyclopropylphenoxy)-4-methoxy-3′-(3-p-tolylureido)biphenyl-3-carboxylic acid], in that order: 3290 nM, 490 nM and 2430 nM.
For `COc1ccc(-c2ccc(Oc3cccc4ccccc34)c(NC(=O)Nc3ccccc3C)c2)cc1C(=O)O` [Example 129, 4-methoxy-4′-(naphthalen-1-yloxy)-3′-(3-o-tolylureido)biphenyl-3-carboxylic acid], in that order: 290 nM, 70 nM and 300 nM.
Taken in the same sequence, the figures for `COc1ccc(-c2ccc(Oc3cccc4ccccc34)c(NC(=O)Nc3ccc(C)cc3)c2)cc1C(=O)O` [Example 131, 4-methoxy-4′-(naphthalen-1-yloxy)-3′-(3-p-tolylureido)biphenyl-3-carboxylic acid] were 770 nM, 160 nM and 770 nM.
On to `C#CCOc1cccc(Oc2ccc(-c3ccc(OC)c(C(=O)O)c3)cc2NC(=O)Nc2ccccc2Cl)c1C` [Example 136, 3′-(3-(2-chlorophenyl)ureido)-4-methoxy-4′-(2-methyl-3-(prop-2-ynyloxy)phenoxy)biphenyl-3-carboxylic acid], for which the figures for the IC50 at Human IDO1, on IDO [1] and against IDO [2] were 70 nM, 20 nM and 140 nM, respectively.
Consider `C#CCOc1cccc(Oc2ccc(-c3ccc(OC)c(C(=O)O)c3)cc2NC(=O)Nc2ccc(C)cc2)c1C` [Example 141, 4-methoxy-4′-(2-methyl-3-(prop-2-ynyloxy)phenoxy)-3′-(3-p-tolylureido)biphenyl-3-carboxylic acid], for which the IC50 at Human IDO1 is 420 nM; on IDO [1], 50 nM; against IDO [2], 330 nM.
With `COc1ccc(-c2ccc(Oc3cccc4c3CCC4)c(NC(=O)Nc3ccccc3Cl)c2)cc1C(=O)O` [Example 142, 3′-(3-(2-chlorophenyl)ureido)-4′-(2,3-dihydro-1H-inden-4-yloxy)-4-methoxybiphenyl-3-carboxylic acid], the IC50 at Human IDO1 worked out at 380 nM; at IDO [1], 40 nM; at IDO [2], 160 nM.
For `COc1ccc(-c2ccc(Oc3cccc4c3CCC4)c(NC(=O)Nc3ccccc3C)c2)cc1C(=O)O` [Example 143, 4′-(2,3-dihydro-1H-inden-4-yloxy)-4-methoxy-3′-(3-o-tolylureido)biphenyl-3-carboxylic acid], the results for the IC50 at Human IDO1, at IDO [1] and against IDO [2] were 530 nM, 50 nM and 200 nM, respectively.
For `COc1ccc(-c2ccc(Oc3cccc4c3CCC4)c(NC(=O)Nc3ccc(C)cc3)c2)cc1C(=O)O` [Example 145, 4′-(2,3-dihydro-1H-inden-4-yloxy)-4-methoxy-3′-(3-p-tolylureido)biphenyl-3-carboxylic acid], the IC50 on Human IDO1 is 1590 nM; at IDO [1] it was 280 nM; on IDO [2], 790 nM.
Consider `COc1ccc(-c2ccc(Oc3ccc4c(c3)CCCC4)c(NC(=O)Nc3ccc(C)cc3)c2)cc1C(=O)O` [Example 148, 4-methoxy-4′-(5,6,7,8-tetrahydronaphthalen-2-yloxy)-3′-(3-p-tolylureido)biphenyl-3-carboxylic acid], for which the IC50 on Human IDO1 came to 2420 nM; on IDO [1], 260 nM; against IDO [2] it was 490 nM.
As for `COc1ccc(-c2ccc(Oc3cccc4c3CCCC4)c(NC(=O)Nc3ccccc3)c2)cc1C(=O)O` [Example 151, 4-methoxy-3′-(3-phenylureido)-4′-(5,6,7,8-tetrahydronaphthalen-1-yloxy)biphenyl-3-carboxylic acid], the IC50 at Human IDO1 was found to be 1120 nM; on IDO [1] it was 60 nM; against IDO [2], 300 nM.
For `COc1ccc(-c2ccc(Oc3cccc4c3CCCC4)c(NC(=O)Nc3ccccc3F)c2)cc1C(=O)O` [Example 152, 3′-(3-(2-fluorophenyl)ureido)-4-methoxy-4′-(5,6,7,8-tetrahydronaphthalen-1-yloxy)biphenyl-3-carboxylic acid], in that order: 450 nM, 50 nM and 290 nM.
Regarding `COc1ccc(-c2ccc(Oc3cccc4c3CCCC4)c(NC(=O)Nc3ccc(C)c(C)c3)c2)cc1C(=O)O` [Example 153, 3′-(3-(3,4-dimethylphenyl)ureido)-4-methoxy-4′-(5,6,7,8-tetrahydronaphthalen-1-yloxy)biphenyl-3-carboxylic acid], the IC50 on Human IDO1 is 920 nM; on IDO [1] it was 40 nM; against IDO [2], 530 nM.
For `Cc1cccc(NC(=O)Nc2cc(-c3cccc(C(=O)O)c3)ccc2Oc2ccccc2C(C)(C)C)c1` [Example 225, 4′-(2-tert-butylphenoxy)-3′-(3-m-tolylureido) biphenyl-3-carboxylic acid], the figures for the IC50 on Human IDO1, on IDO [1] and on IDO [2] were 7650 nM, 570 nM and 2900 nM, respectively.
`Cc1ccc(NC(=O)Nc2cc(-c3cccc(C(=O)O)c3)ccc2Oc2cccc(Cl)c2)cc1` [Example 245, 4′-(3-chlorophenoxy)-3′-(3-p-tolylureido) biphenyl-3-carboxylic acid]: the IC50 is 6580 nM on Human IDO1, 250 nM on IDO [1] and 2250 nM on IDO [2].
Taken in the same sequence, the figures for `Cc1ccccc1NC(=O)Nc1cc(-c2cc(F)cc(C(=O)O)c2)ccc1Oc1ccccc1C(C)(C)C` [Example 254, 4′-(2-tert-butylphenoxy)-5-fluoro-3′-(3-o-tolylureido) biphenyl-3-carboxylic acid] were 1620 nM, 350 nM and 1160 nM.
